# Source: patent US5607836A, “Methods of detecting compounds which bind to the P2U receptor” (The Curators of the University of Missouri, priority 1995, dated 1997)
# Legend:
# murine P2U receptor [1] = target: T1, murine P2U receptor (Mus musculus, UniProt P35383); test: cytoplasmic free calcium (fura-2) in K562 cells transfected with P2U receptor cDNA; format: cell-based; parameters: missing the first 6 nucleotides of the 5' untranslated region of the full length cDNA; expressed in transfected cells; host or cells: K562 human leukemia cells; details: for effect on [Ca^2+ ]i in stable transfectants / prevention of ATP-mediated increases in [Ca^2+ ]i (antagonism): concentrations as high as 1 mM, stable transfectants
# T1 sequence (P35383 whole entry, the tested form may be a part): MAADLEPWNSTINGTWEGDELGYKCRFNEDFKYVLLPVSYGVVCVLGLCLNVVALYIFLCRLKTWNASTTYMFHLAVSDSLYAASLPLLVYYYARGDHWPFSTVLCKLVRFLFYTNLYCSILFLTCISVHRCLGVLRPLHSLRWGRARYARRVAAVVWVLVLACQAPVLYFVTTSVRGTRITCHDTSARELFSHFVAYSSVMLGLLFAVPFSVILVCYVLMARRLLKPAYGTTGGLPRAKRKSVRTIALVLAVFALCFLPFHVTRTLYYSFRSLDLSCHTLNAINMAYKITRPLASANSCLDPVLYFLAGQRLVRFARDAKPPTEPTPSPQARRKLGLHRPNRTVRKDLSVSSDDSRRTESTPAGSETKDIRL
# Text: (§1) Stable and Transient Transfections. To generate stable transfectants expressing the P2U receptor, K562 cells were transfected by electroporation (F. Toneguzzo et al., Mol. Cell. Biol. 6, 703 (1986)) with the neomycin-resistance plasmid pP2R1. pP2R1 is pRc/CMV containing a ~2.4 kb HindIII-NotI fragment of the P2U receptor cDNA, missing the first 6 nucleotides of the 5' untranslated region of the full length cDNA. control cells were stably transfected with pRc/CMV. Cells were sedimented at 200×g for 5 min at room temperature, rinsed once with phosphate-buffered saline (10 mM NaH2 PO4, pH 7.4, 120 mM NaCl, 5 mM KCl), and resuspended in phosphate-buffered saline at a final concentration of 4×10^7 cells/ml. The cells were chilled on ice for 10 min and then transferred in 0.5 ml aliquots to prechilled electroporation cuvettes. DNA (40 μg of pP2R1 linearized with PvuI) was added to the cell suspension, the cells were subjected to a single electrical pulse (1 kV, 25 μF) and the cuvettes were placed on ice. After 10 min, growth medium was added and the cells were incubated at 37° C. Fresh growth medium supplemented with 0.7 mg/ml G418 was added 48 h […], and the cells were incubated for 2 weeks to select for stable transfectants expressing neomycin resistance. Clonal cell lines were then isolated by transferring single cells to individual wells of a 96-well culture plate: each well contained 0.2 ml of conditioned growth medium filtered from K562 stock cultures, 0.2 ml of fresh growth medium, and 0.4 mg/ml G418. The clonal cell lines were cultured for three to four weeks in growth medium containing 0.4 mg/ml G418 and assayed for P2U receptor, the results shown are from one representative clonal cell line.
# To generate transient transfectants, K562 cells were transfected as above with 40 μg unlinearized plasmid pCCM6×1 or pP2R (Lustig et al., supra 1993). Cells were incubated for 48 h at 37° C. in 100 mm culture dishes containing 12 ml of growth medium and assayed for P2U receptor activity.
# (§2) Cytoplasmic Free Calcium Measurements. Cells were sedimented at 200×g for 5 min at room temperature and washed once with 10 ml of Hepes-bufferedsaline (20 mM Hepes, pH 7.4, 120 mM NaCl, 5 mM KCl, 1 mM MgCl2, and 1 mM CaCl2). Washed cells were suspended in Hepes-buffered saline at 5×10^5 cells/ml, and stored (for up to 4 h) at 37° C. The concentration of cytoplasmic free calcium, [Ca^2+ ]i, was measured by dual-excitation spectrofluorometric analysis of cells loaded with fura-2, a fluorescent probe for calcium.
# [2] = system: P2T receptor of K562 cells; test: cytoplasmic free calcium (fura-2) in untransfected or vector-transfected K562 cells; format: cell-based, human; details: untransfected K562 cells; for effect on [Ca^2+ ]i in untransfected K562 cells: concentrations as high as 1 mM; for elevation of [Ca^2+ ]i in untransfected K562 cells (P2T receptor): 1 mM for ATP, UTP, ATPγS, BzATP, BzUTP
# Text: as §1, §2
# [3] = target: T2, P2U receptor of CF/T43 cells (Homo sapiens, UniProt P41231); test: intracellular calcium by fura-2 fluorescence in CF/T43 cells (endogenous receptor); format: cell-based; details: pretreatment
# T2 construct: fura-2 calcium
# T2 sequence (P41231 whole entry): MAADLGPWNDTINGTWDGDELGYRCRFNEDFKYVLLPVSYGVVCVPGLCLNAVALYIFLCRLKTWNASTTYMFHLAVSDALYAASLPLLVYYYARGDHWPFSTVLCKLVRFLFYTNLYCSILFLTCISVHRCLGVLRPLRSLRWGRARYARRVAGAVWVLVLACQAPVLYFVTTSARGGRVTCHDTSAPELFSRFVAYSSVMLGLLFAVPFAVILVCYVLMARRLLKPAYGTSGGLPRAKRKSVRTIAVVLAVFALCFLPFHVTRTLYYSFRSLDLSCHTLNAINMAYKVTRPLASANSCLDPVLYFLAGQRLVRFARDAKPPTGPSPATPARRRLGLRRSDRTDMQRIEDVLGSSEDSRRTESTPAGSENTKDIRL
# Procedure: (§3) Heteroloqous Expression. A retroviral vector-containing plasmid, pLHP2USN, was constructed by insertion of the cloned CF/T43 cDNA into the EcoRI and XhoI sites of pLXSN (A. Miller and G. Rosman, Biotechniques 7, 980 (1989)). An amphotrophic packaging cell line, PA317, was used to produce the LHP2USN retroviral vector and a control vector containing Neor only (LSN). Clonal human astrocytoma cells 1321N1, UNC strain, generously provided by T. K. Harden (UNC, Chapel Hill, N.C.), were plated at 150,000 cells per 60-mm dish and infected with LHP2USN or LSN (2 hr, 4 ug/ml Polybrene) and after 48 hr selected with 600 ug/ml G418 (Life Technologies, Inc., Gaithersburg, Md., U.S.A.). To assay for receptor activity, intracellular calcium concentration was measured in confluent cells on coverslips by fura-2 fluorescence using microspectrofluorimetry as previously described (S. Mason et al., Br. J. Pharmacol. 103, 1649 (1991)). Measurement of cell inositol phosphate formation was as described by H. Brown et al., Mol. Pharmacol. 40, 648 (1991), in accordance with known techniques.
# (§4) A retrovirus expression system was employed to study the cloned CF/T43 HP2U cDNA in 1321N1 human astrocytoma cells. The effect of extracellular nuceotides on intracellular calcium, as measured by fura-2 fluorescence, was assessed in CF/T43 cells, uninfected 1321N1 cells, and 1321N1 cells infected with retroviral vector containing either the cloned HP2U or no insert (LSN).
# human P2U receptor [4] = target: T3, human P2U receptor (Homo sapiens, UniProt P41231); test: intracellular calcium by fura-2 fluorescence in 1321N1 human astrocytoma cells expressing the cloned HP2U (LHP2USN); format: cell-based; details: for efficacy / effect in concentration-effect curves: HP2U clone expressed in 1321N1 cells
# T3 sequence (P41231 whole entry): as above
# Procedure: as §3, §4
# To examine the pharmacological specifity of the HP2U clone expressed in 1321N1 cells, concentration-effect curves were generated for nucleotides and structural analogues active at P2X, P2Y and P2U receptors (data not shown). […] These concentration-effect relations are very similar to those reported for heterologously expressed murine P2U (Lustig, et al., supra) and virtually indistinguishable from data (not shown) generated for the endogenous CF/T43 and HT-29 receptors. Clearly, the agonist specifities fit the definition of the P2U receptor.
# [5] = system: 1321N1 human astrocytoma cells (uninfected or LSN-infected); test: intracellular calcium by fura-2 fluorescence in uninfected or LSN-infected 1321N1 control cells; format: cell-based; details: uninfected or LSN-infected controls
# Procedure: as §3, §4
# human P2U receptor [6] = target: T3, human P2U receptor; test: inositol phosphate formation in 1321N1 cells expressing LHP2USN; format: cell-based; details: HP2U-1321N1 cells; apyrase in the medium during cell-labeling step
# Procedure: as §3
# To test this possibility more directly, we measured inositol phosphate formation. […] We hypothesized that during the lengthy labeling period 1321N1 cells released 5'-nucleotides into the medium in quantities sufficient to "self-activate" the receptor. […] Thus, it appears the cells are persistently stimulated by nucleotides in an autocrine fashion. The mode of release of nucleotides from the astrocytoma cells and the biological consequences of the persistent autocrine activation are unknown. To facilitate comparison with controls, the inositol phosphate studies were performed on cells pretreated with apyrase.
# murine P2U receptor [7] = target: T1, murine P2U receptor; parameters: host or cells: Xenopus oocytes; details: Lustig et al. 1993, cited from earlier work; for stimulation of ^45 Ca^2+ efflux in oocytes: oocytes expressing the cloned receptor
Compound,effect on [Ca^2+ ]i in stable transfectants (murine P2U receptor [1]),prevention of ATP-mediated increases in [Ca^2+ ]i (antagonism) (murine P2U receptor [1]),effect on [Ca^2+ ]i in untransfected K562 cells [2],further results
"Nc1ncnc2c1ncn2[C@@H]1O[C@H](COP(=O)(O)OP(=O)(O)NP(=O)(O)O)[C@@H](O)[C@H]1O [β,γ imidoATP]",had no effect,did not prevent ATP-mediated increases,had no effect,
pertussis toxin,,,,"inhibition of ATP-stimulated intracellular Ca^2+ mobilization [3]: 20-30%; inhibition of ATP-stimulated intracellular Ca^2+ mobilization (human P2U receptor [4]; HP2U-1321N1 cells, pretreatment): 20-30%"
"O=C(O[C@H]1[C@@H](O)[C@H](n2ccc(=O)[nH]c2=O)O[C@@H]1COP(=O)(O)OP(=O)(O)OP(=O)(O)O)c1ccc(C(=O)c2ccccc2)cc1 [BzUTP, 3'-O-(4-benzoyl)benzoyl uridine 5'-triphosphate]",,,,agonist activity at the P2U receptor (murine P2U receptor [1]; K562 stable transfectants): relatively weak agonists compared to ATP and UTP
Nc1ncnc2c1ncn2[C@@H]1O[C@H](COP(=O)(O)O)[C@@H](O)[C@H]1O [AMP],had no effect,did not prevent ATP-mediated increases,had no effect,
C[N+](C)(C)CCOC(N)=O [carbachol],,,,[Ca^2+ ]i response of uninfected or LSN-infected 1321N1 cells [5]: elicited responses in each case
apyrase,,,,baseline inositol phosphate levels (human P2U receptor [6]): reduced the baseline inositol phosphate levels to values near those of controls
Cc1cn([C@H]2C[C@H](O)[C@@H](COP(=O)(O)OP(=O)(O)OP(=O)(O)O)O2)c(=O)[nH]c1=O [TTP],had no effect,did not prevent ATP-mediated increases,had no effect,
Nc1ncnc2c1ncn2[C@@H]1O[C@H](COP(=O)(O)OP(=O)(O)O)[C@@H](O)[C@H]1O [ADP],,,,agonist activity at the P2U receptor (murine P2U receptor [1]; K562 stable transfectants): do not appear to act as agonists of the P2U receptor; stimulation of ^45 Ca^2+ efflux in oocytes (murine P2U receptor [7]): did not stimulate; elevation of [Ca^2+ ]i in untransfected K562 cells (P2T receptor) [2]: elevated [Ca^2+ ]i
"Nc1ncnc2c1ncn2[C@@H]1O[C@H](COP(=O)(O)OP(=O)(O)CP(=O)(O)O)[C@@H](O)[C@H]1O [β,γ methyleneATP]",had no effect,did not prevent ATP-mediated increases,had no effect,
Nc1ccn([C@@H]2O[C@H](COP(=O)(O)OP(=O)(O)OP(=O)(O)O)[C@@H](O)[C@H]2O)c(=O)n1 [CTP],had no effect,did not prevent ATP-mediated increases,had no effect,
Nc1nc2c(ncn2[C@@H]2O[C@H](COP(=O)(O)OP(=O)(O)OP(=O)(O)O)[C@@H](O)[C@H]2O)c(=O)[nH]1 [GTP],had no effect,did not prevent ATP-mediated increases,had no effect,
"Nc1ncnc2c1ncn2[C@@H]1O[C@H](COP(=O)(O)CP(=O)(O)OP(=O)(O)O)[C@@H](O)[C@H]1O [α,β-MeATP]",,,,efficacy / effect in concentration-effect curves (human P2U receptor [4]): had little effect
O=c1ccn([C@@H]2O[C@H](COP(=O)(O)OP(=O)(O)O)[C@@H](O)[C@H]2O)c(=O)[nH]1 [UDP],had no effect,did not prevent ATP-mediated increases,had no effect,
"CSc1nc(N)c2ncn([C@@H]3O[C@H](COP(=O)(O)OP(=O)(O)OP(=O)(O)O)[C@@H](O)[C@H]3O)c2n1 [2-MeSATP, 2-methylthioATP]",,,,agonist activity at the P2U receptor (murine P2U receptor [1]; K562 stable transfectants): do not appear to act as agonists of the P2U receptor; efficacy / effect in concentration-effect curves (human P2U receptor [4]): had little effect; stimulation of ^45 Ca^2+ efflux in oocytes (murine P2U receptor [7]): did not stimulate; elevation of [Ca^2+ ]i in untransfected K562 cells (P2T receptor) [2]: elevated [Ca^2+ ]i
Nc1ncnc2c1ncn2[C@@H]1O[C@H](COP(=O)(O)OP(=O)(O)OP(O)(O)=S)[C@@H](O)[C@H]1O [ATPγS],,,,"agonist activity at the P2U receptor (murine P2U receptor [1]; K562 stable transfectants): relatively potent agonist; EC50 (murine P2U receptor [1]; K562 stable transfectants, read-out: EC50 for increases in [Ca^2+ ]i): ~9.6 µM; agonist activity at the P2U receptor in Xenopus oocytes (murine P2U receptor [7]; Xenopus oocytes): relatively potent agonist"
"Nc1ncnc2c1ncn2[C@@H]1O[C@H](COP(=O)(O)OP(=O)(O)OP(=O)(O)O)[C@@H](OC(=O)c2ccc(C(=O)c3ccccc3)cc2)[C@H]1O [BzATP, 3'-O-(4-benzoyl)benzoyl adenosine 5'-triphosphate]",,,,agonist activity at the P2U receptor (murine P2U receptor [1]; K562 stable transfectants): relatively weak agonists compared to ATP and UTP
Nc1ncnc2c1ncn2[C@@H]1O[C@H](CO)[C@@H](O)[C@H]1O [adenosine],had no effect,did not prevent ATP-mediated increases,had no effect,
